Results reported in patent US12644133B2, “Methods and compositions to increase somatic cell nuclear transfer (SCNT) efficiency by removing histone H3-lysine trimethylation” (The Children's Medical Center Corporation, priority 2014, dated 2026).
“And” between values parts separate entries of the source, which are not always exact repeats. Identical values can stand only once.

Legend:
[1] = target: Suv39h2 (Homo sapiens, UniProt Q9H5I1); conditions: cited from earlier work
[2] = tested on: SetDB1 H3K9me3 HMTase; conditions: cited from earlier work
[3] = tested on: SCNT blastocysts; assay: ntESC derivation from SCNT blastocysts; assay type: cell-based, mouse
Experimental: Blastocysts were denuded by acid tyrode treatment and cultured on mitomycin treated MEF feeder cells and in DMEM supplemented with 5% FBS, 10% KnockOut serum replacement (Life Technologies #10828-028), 0.1 mM non-essential amino acids, 2 mM GlutaMAX, 50 U/ml penicillin-streptomycin, 0.1 mM 2-mercaptoethanol and 2000 U leukemia inhibitory factor (LIF, Millipore #ESG1107) at 37° C. 5% CO2. Four to five days later, outgrowths from attached embryos were dissociated with 0.25% trypsin and passaged all onto new feeder cells. On the following day, the medium was replaced with N2B27-LIF media [DMEM/F12 (Life Technologies #10565-042) supplemented with 0.1 mM non-essential amino acids, 2 mM GlutaMAX, 50 U/ml penicillin-streptomycin, 0.1 mM 2-mercaptoethanol, 0.5×N2 supplement (Life technologies #17502-048), 0.5× B27 supplement (Life technologies #17504-044), […] CHIR99021 (STEMGENT #04-0004), 0.5 μM PD0325901 (STEMGENT #04-0006) and 1000 U LIF]. Five days later, expanded cells were reseeded as established ntESC.

[4] = tested on: SCNT embryos; assay: Preimplantation development of SCNT embryos cultured in vitro; assay type: cell-based, mouse; conditions: cumulus donor cells (BDF1, female), TSA treatment 15 nM for 8 h, water or mRNA 1800 ng/μl injected
Description: C57BL/6J female mice were mated with DBA/2J males to produce B6D2F1/J (BDF1) mice. BDF1 and CD-1 (ICR) adult females were used for the collection of recipient oocytes and embryo transfer recipients, respectively. BDF1 mice were used for the collection of donor somatic cells for the analyses of development. (C57BL/6×CAST/EiJ) F1 mice were used for the collection of donor cells for RNA-seq. E13.5 embryos harboring GOF18 delta-PE (Jackson Laboratory, 004654: Tg(Pou5f1-EGFP)2Mnn, C57BL/6J background) were used for the isolation of mouse embryonic fibroblasts (MEF). All animal experiments were approved by the Institutional Animal Care and Use Committee of Harvard Medical School.
Cumulus cells were collected from adult BDF1 females through superovulation by injecting 7.5 IU of pregnant mare serum gonadotropin (PMSG; Harbor) and 7.5 IU of human chorionic gonadotropin (hCG; Millipore). Fifteen hours after the hCG injection, cumulus-oocyte complexes (COCs) were collected from the oviducts and briefly treated with Hepes-buffered potassium simplex-optimized medium (KSOM) containing 300 U/ml bovine testicular hyaluronidase (Calbiochem #385931) to obtain dissociated cumulus cells. Sertoli cells were collected from testes of 3- to 5-day-old BDF1 male mice as described (Matoba et al., 2011). Testicular masses were incubated in PBS containing 0.1 mg/ml collagenase (Life Technologies #17104-019) for 30 min at 37° C. followed by 5 min treatment with 0.25% Trypsine with 1 mM EDTA (Life Technologies #25200-056) at room temperature. After washing for four times with PBS containing 3 mg/ml bovine serum albumin, the dissociated cells were suspended in Hepes-KSOM medium.
Primary mouse embryonic fibroblast (MEF) cells were established from GOF18 delta-PE mouse embryos at 13.5 dpc. After removal of head and all organs, minced tissue from remaining corpus was dissociated in 500 μl of 0.25% Trypsine with 1 mM EDTA for 10 min at 37° C. Cell suspension was diluted with equal amount of DMEM (Life Technologies #11995-073) containing 10% FBS and Penicillin/Streptomycin (Life Technologies #15140-022) and pipetted up and down for 20 times. The cell suspension was diluted with fresh medium and plated onto 100 mm dishes and cultured at 37° C. Two days later, MEF cells were harvested and frozen. Frozen stocks of MEF cells were thawed and used for experiments after one passage.
siRNAs against mouse Suv39h1 (Life Technologies #s74607), Suv39h2 (Life Technologies #s82300) and Setdb1 (Life Technologies #s96549) were diluted in nuclease free water at 50 μM stock solutions. siRNAs were introduced to MEFs with Lipofectamine RNAi Max (Life technologies #35050-061) following manufacturer's protocol. Briefly, 1×10^5 MEF cells were seeded onto 24-well plate (day 0; see FIG. 5A). Twenty-four hours later, […] siRNAs were transfected into MEF cells using Lipofectamine RNAi Max (day 1). Twenty-four hours after the first transfection, the culture media was changed to fresh M293T media [DMEM supplemented with 10% FBS, 0.1 mM non-essential amino acids (Life technologies #11140-050), 2 mM GlutaMAX (Life technologies #35050-079), 50 U/ml penicillin-streptomycin and 0.1 mM 2-mercaptoethanol (Life technologies #21985-023)] (day 2). On day 3, MEF cells were reseeded onto 24-well plates at the density of 1×10^5 cells. Then transfection was repeated once as described above (day 4). Forty-eight hours after the second transfection (day 6), MEF cells were used for immunostaining, RT-qPCR or SCNT.
Somatic cell nuclear transfer was carried out as described previously (Matoba et al., 2011). Briefly, recipient MII oocytes were collected from superovulated adult BDF1 females by brief treatment with 300 U/ml bovine testicular hyaluronidase (Calbiochem). Isolated MII oocytes were enucleated in Hepes-buffered KSOM medium containing 7.5 μg/ml of cytochalasin B (Calbiochem #250233). […]

[5] = cumulus donor cells (BDF1, female), TSA treatment 15 nM for 8 h, water or mRNA 1800 ng/μl injected

Sequence of Suv39h2 (Q9H5I1 whole entry, species assumed): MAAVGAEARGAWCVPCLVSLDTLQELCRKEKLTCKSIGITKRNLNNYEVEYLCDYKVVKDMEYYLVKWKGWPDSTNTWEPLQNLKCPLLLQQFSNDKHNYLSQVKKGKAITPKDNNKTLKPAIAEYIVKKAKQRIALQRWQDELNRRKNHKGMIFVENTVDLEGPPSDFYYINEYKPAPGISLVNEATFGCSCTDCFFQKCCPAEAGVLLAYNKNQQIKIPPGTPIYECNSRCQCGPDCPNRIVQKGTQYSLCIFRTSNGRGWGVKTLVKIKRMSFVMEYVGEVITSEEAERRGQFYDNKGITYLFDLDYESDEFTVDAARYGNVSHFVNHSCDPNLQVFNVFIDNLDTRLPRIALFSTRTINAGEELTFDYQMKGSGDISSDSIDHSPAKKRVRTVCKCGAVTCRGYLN

## COc1cc2c(NC3CCN(C(C)C)CC3)nc(C3CCCCC3)nc2cc1OCCCN1CCCC1 [UNC0638, 2-Cyclohexyl-N-(1-isopropylpiperidin-4-yl)-6-methoxy-7-(3-(pyrrolidin-1-yl)propoxy)quinazolin-4-amine]
[1]
  IC50: > 10 µM

## Nc1nccc2c1ncn2[C@@H]1C=C(CO)[C@@H](O)[C@H]1O [DZNep, 3-Deazaneplanocin A]
[2]
  levels of H3K27me3 and H3K9me3 (in words): reduced levels of both H3K27me3 and H3K9me3

## CC(/C=C/C(=O)NO)=C\[C@@H](C)C(=O)c1ccc(N(C)C)cc1 [TSA, trichostatin A, reference compound]
[3]; SCNT blastocysts from cumulus donor cells
  efficiency of attachment or ntESC derivation per blastocyst, compared to control (in words): did not show any significant difference
[3]; [5]
  No. of blastocyst attached to feeder cells: 14
  No. of established ntESC lines: 8
  blastocyst attached to feeder cells (% per blast): 70.0%
  established ntESC lines (% per MII oocyte): (18.2) %
  established ntESC lines (% per blast): (40.0) %
[4]
  % 4-cell per 2-cell ± SD: 72.1 ± 10.9 %
  % blast per 2-cell ± SD: 53.8% and 53.8 ± 6.2 %
  % cleaved per 1-cell ± SD: 98.0 ± 3.4%
  % morula per 2-cell ± SD: 60.8 ± 6.8 %
[4]; ntESC derivation experiment
  No. of blastocyst: 20
  blastocyst (% per 1-cell): 51.3%
